According to US10414811B2, “Protease-resistant lipidated GLP-1 analogs” (MEDIMMUNE LIMITED, priority 2015, dated 2019):
Read-outs that look alike come from different tables or passages of the source. Numbered stars: 1 amine (or outer) side, 2 acyl side, 3 side chain; on linkers, the order of the positions; unused ones are H or OH. Square brackets hold non-standard residues; d marks the D form. Side chains are listed from the residue outwards. Peptide text beside a SMILES is read from it. * marks the point of attachment. C18 diacid = O=C(O)CCCCCCCCCCCCCCCCC(=O)*; γGlu = O=C(O)[C@H](CCC(=O)[*:2])N[*:1]; αMeF = C[C@](N)(Cc1ccccc1)C(=O)O; αMeK = C[C@](N)(CCCCN)C(=O)O; αMeS = C[C@](N)(CO)C(=O)O; AEEA = NCCOCCOCC(=O)O; Aib = CC(C)(N)C(=O)O

How the values were obtained:
Assay type in all cases: cell-based
[1] = target: T1, human GLP-1 receptor (GLP-1R) (Homo sapiens, UniProt P43220); assay: cAMP assay, human GLP-1R cells
T1 construct: expressed in transfected cells
Summary of the method: (§1)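 Peptide-stimulated cAMP measured by two-step HTRF after a 30 min room-temperature incubation with receptor-expressing cells (hGLP-1R, hGIPR at 1×10^5 cells/ml; hGCGR at 2×10^5 cells/ml). Duplicate dilutions; EC50 from 4-parameter logistic fit of % Delta F.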

[2] = target: T2, human glucagon receptor (GCGR) (Homo sapiens, UniProt P47871); assay: cAMP assay, human GCGR cells; conditions: cAMP assay
T2 construct: expressed in transfected cells
Summary of the method: as §1

[3] = target: T3, human glucose-dependent insulinotropic peptide receptor (GIPR) (Homo sapiens, UniProt P48546); assay: cAMP assay, human GIPR cells; conditions: cAMP assay
T3 construct: expressed in transfected cells
T3 sequence (P48546 22-466): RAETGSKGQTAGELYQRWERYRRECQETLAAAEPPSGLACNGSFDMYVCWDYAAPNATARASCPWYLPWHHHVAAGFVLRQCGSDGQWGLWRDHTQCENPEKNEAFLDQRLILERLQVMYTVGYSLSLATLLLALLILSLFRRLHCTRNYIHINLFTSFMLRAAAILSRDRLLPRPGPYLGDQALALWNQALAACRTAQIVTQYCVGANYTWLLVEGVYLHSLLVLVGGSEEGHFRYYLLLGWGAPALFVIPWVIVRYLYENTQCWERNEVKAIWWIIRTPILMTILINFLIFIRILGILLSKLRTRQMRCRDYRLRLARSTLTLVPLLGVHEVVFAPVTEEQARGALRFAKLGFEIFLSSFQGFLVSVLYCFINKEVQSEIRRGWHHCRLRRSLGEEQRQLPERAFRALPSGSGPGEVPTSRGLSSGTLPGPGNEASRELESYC
Summary of the method: as §1

[4] = cAMP assay, first determination (n1), read-out: Primary assay EC50 GLP-1R n1
[5] = cAMP assay, second determination (n2), read-out: Primary assay EC50 GLP-1R n2
[6] = mean of n1 and n2, read-out: Mean pM GLP-1R
[7] = first determination (n1), read-out: Primary assay EC50 Gluc-R (n1)
[8] = second determination (n2), read-out: Primary assay EC50 Gluc-R (n2)
[9] = first determination (n1), read-out: Primary assay EC50 GIP-R (n1)
[10] = second determination (n2), read-out: Primary assay EC50 GIP-R (n2)

T1 sequence (P43220 24-463): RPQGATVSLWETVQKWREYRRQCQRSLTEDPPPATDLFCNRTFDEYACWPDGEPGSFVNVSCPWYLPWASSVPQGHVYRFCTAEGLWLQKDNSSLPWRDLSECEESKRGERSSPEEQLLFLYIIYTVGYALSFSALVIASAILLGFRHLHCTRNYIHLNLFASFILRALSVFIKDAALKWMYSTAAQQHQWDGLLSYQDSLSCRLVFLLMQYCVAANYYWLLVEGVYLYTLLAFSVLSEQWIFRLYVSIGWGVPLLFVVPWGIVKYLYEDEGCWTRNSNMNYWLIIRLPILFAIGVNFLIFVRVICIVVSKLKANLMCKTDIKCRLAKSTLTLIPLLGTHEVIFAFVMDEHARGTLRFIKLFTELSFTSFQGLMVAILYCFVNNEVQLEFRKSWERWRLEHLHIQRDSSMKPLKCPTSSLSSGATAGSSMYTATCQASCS
T2 sequence (P47871 26-477): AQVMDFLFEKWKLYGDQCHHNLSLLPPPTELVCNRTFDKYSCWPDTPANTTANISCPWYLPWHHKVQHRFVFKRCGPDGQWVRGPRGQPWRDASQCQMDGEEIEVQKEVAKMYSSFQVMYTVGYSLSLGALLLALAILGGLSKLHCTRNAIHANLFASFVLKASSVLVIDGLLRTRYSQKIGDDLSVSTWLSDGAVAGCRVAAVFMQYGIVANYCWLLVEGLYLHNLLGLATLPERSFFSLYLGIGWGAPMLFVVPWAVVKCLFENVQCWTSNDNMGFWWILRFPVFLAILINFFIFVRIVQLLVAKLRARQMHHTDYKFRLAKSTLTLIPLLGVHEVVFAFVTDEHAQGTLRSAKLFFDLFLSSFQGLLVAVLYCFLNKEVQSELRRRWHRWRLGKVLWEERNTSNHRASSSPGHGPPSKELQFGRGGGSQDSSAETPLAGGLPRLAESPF

| Structure (SMILES) | EC50 [1, 4] | EC50 [1, 5] | EC50 [1, 6] | EC50 [2, 7] | EC50 [2, 8] | EC50 [3, 9] | EC50 [3, 10] |
| --- | --- | --- | --- | --- | --- | --- | --- |
| CCCCCCCCCCCCCCCC(=O)N[C@@H](CCC(=O)NCCCC[C@H](NC(=O)[C@@H](N)Cc1c[nH]cn1)C(=O)N[C@@H](CCC(=O)O)C(=O)NCC(=O)N[C@@H](CO)C(=O)N[C@@](C)(Cc1ccccc1)C(=O)N[C@H](C(=O)N[C@@H](CO)C(=O)N[C@@H](CC(=O)O)C(=O)N[C@H](C(=O)N[C@@](C)(CO)C(=O)N[C@@H](CO)C(=O)N[C@@](C)(Cc1ccccc1)C(=O)N[C@@H](CC(C)C)C(=O)N[C@@H](CCC(=O)O)C(=O)NCC(=O)N[C@@H](CCC(=O)O)C(=O)N[C@@H](C)C(=O)N[C@@H](C)C(=O)N[C@@](C)(CCCCN)C(=O)N[C@@H](CCC(=O)O)C(=O)N[C@@](C)(Cc1ccccc1)C(=O)N[C@H](C(=O)N[C@@H](C)C(=O)N[C@@](C)(Cc1ccccc1)C(=O)N[C@H](C(=O)N[C@H](C(=O)N[C@@](C)(CCCCN)C(=O)NCC(=O)NCC(N)=O)C(C)C)C(C)C)[C@@H](C)CC)C(C)C)[C@@H](C)O)C(=O)O [compound 98] | ≥ 28000 pM | ≥ 28000 pM | ≥ 27500 pM | ≥ 28 nM | ≥ 28 nM | ≥ 28 nM | ≥ 28 nM |
| CC[C@H](C)[C@H](NC(=O)[C@](C)(Cc1ccccc1)NC(=O)[C@H](CCC(=O)O)NC(=O)[C@](C)(CCCCN)NC(=O)[C@H](C)NC(=O)[C@H](C)NC(=O)[C@H](CCC(=O)O)NC(=O)CNC(=O)[C@H](CCCCNC(=O)COCCOCCNC(=O)COCCOCCNC(=O)CC[C@H](NC(=O)CCCCCCCCCCCCCCCCC(=O)O)C(=O)O)NC(=O)[C@H](CC(C)C)NC(=O)[C@](C)(Cc1ccccc1)NC(=O)[C@H](CO)NC(=O)[C@](C)(CO)NC(=O)[C@@H](NC(=O)[C@H](CC(=O)O)NC(=O)[C@H](CO)NC(=O)[C@@H](NC(=O)[C@](C)(Cc1ccccc1)NC(=O)[C@H](CO)NC(=O)CNC(=O)[C@H](CCC(=O)O)NC(=O)C(C)(C)NC(=O)[C@@H](N)Cc1c[nH]cn1)[C@@H](C)O)C(C)C)C(=O)N[C@@H](C)C(=O)N[C@@](C)(Cc1ccccc1)C(=O)N[C@H](C(=O)N[C@H](C(=O)N[C@@](C)(CCCCN)C(=O)NCC(=O)NCC(N)=O)C(C)C)C(C)C [compound 114] (H-H[Aib]EGS[αMeF]TSDV[αMeS]S[αMeF]LK([AEEA-AEEA-γGlu-C18 diacid])GEAA[αMeK]E[αMeF]IA[αMeF]VV[αMeK]GG-NH2; N-terminus assumed) | 550 pM | 458 pM | 503 pM | ≥ 25 nM | ≥ 25.4 nM | ≥ 25 nM | ≥ 25.4 nM |
| CC[C@H](C)[C@H](NC(=O)[C@](C)(Cc1ccccc1)NC(=O)[C@H](CCC(=O)O)NC(=O)[C@](C)(CCCCN)NC(=O)[C@H](C)NC(=O)[C@H](C)NC(=O)[C@H](CCC(=O)O)NC(=O)CNC(=O)[C@H](CCC(=O)O)NC(=O)[C@H](CC(C)C)NC(=O)[C@](C)(Cc1ccccc1)NC(=O)[C@H](CO)NC(=O)[C@](C)(CO)NC(=O)[C@@H](NC(=O)[C@H](CCCCNC(=O)COCCOCCNC(=O)COCCOCCNC(=O)CC[C@H](NC(=O)CCCCCCCCCCCCCCCCC(=O)O)C(=O)O)NC(=O)[C@H](CO)NC(=O)[C@@H](NC(=O)[C@](C)(Cc1ccccc1)NC(=O)[C@H](CO)NC(=O)CNC(=O)[C@H](CCC(=O)O)NC(=O)C(C)(C)NC(=O)[C@@H](N)Cc1c[nH]cn1)[C@@H](C)O)C(C)C)C(=O)N[C@@H](C)C(=O)N[C@@](C)(Cc1ccccc1)C(=O)N[C@H](C(=O)N[C@H](C(=O)N[C@@](C)(CCCCN)C(=O)NCC(=O)NCC(N)=O)C(C)C)C(C)C [compound 120] (H-H[Aib]EGS[αMeF]TSK([AEEA-AEEA-γGlu-C18 diacid])V[αMeS]S[αMeF]LEGEAA[αMeK]E[αMeF]IA[αMeF]VV[αMeK]GG-NH2) | 4100 pM | 3130 pM | 3640 pM | ≥ 25 nM | ≥ 25.3 nM | ≥ 25 nM | ≥ 25.3 nM |
| CC[C@H](C)[C@H](NC(=O)[C@](C)(Cc1ccccc1)NC(=O)[C@H](CCC(=O)O)NC(=O)[C@](C)(CCCCN)NC(=O)[C@H](C)NC(=O)[C@H](C)NC(=O)[C@H](CCC(=O)O)NC(=O)CNC(=O)[C@H](CCC(=O)O)NC(=O)[C@H](CC(C)C)NC(=O)[C@](C)(Cc1ccccc1)NC(=O)[C@H](CO)NC(=O)[C@](C)(CO)NC(=O)[C@@H](NC(=O)[C@H](CC(=O)O)NC(=O)[C@H](CO)NC(=O)[C@@H](NC(=O)[C@H](CCCCNC(=O)COCCOCCNC(=O)COCCOCCNC(=O)CC[C@H](NC(=O)CCCCCCCCCCCCCCCCC(=O)O)C(=O)O)NC(=O)[C@H](CO)NC(=O)CNC(=O)[C@H](CCC(=O)O)NC(=O)C(C)(C)NC(=O)[C@@H](N)Cc1c[nH]cn1)[C@@H](C)O)C(C)C)C(=O)N[C@@H](C)C(=O)N[C@@](C)(Cc1ccccc1)C(=O)N[C@H](C(=O)N[C@H](C(=O)N[C@@](C)(CCCCN)C(=O)NCC(=O)NCC(N)=O)C(C)C)C(C)C [compound 123] | 4900 pM | 4430 pM | 4660 pM | ≥ 26 nM | ≥ 25.6 nM | ≥ 26 nM | ≥ 25.6 nM |
| CC[C@H](C)[C@H](NC(=O)[C@](C)(Cc1ccccc1)NC(=O)[C@H](CCC(=O)O)NC(=O)[C@](C)(CCCCN)NC(=O)[C@H](C)NC(=O)[C@H](C)NC(=O)[C@H](CCC(=O)O)NC(=O)CNC(=O)[C@H](CCC(=O)O)NC(=O)[C@H](CC(C)C)NC(=O)[C@](C)(Cc1ccccc1)NC(=O)[C@H](CO)NC(=O)[C@](C)(CO)NC(=O)[C@@H](NC(=O)[C@H](CC(=O)O)NC(=O)[C@H](CO)NC(=O)[C@@H](NC(=O)[C@](C)(Cc1ccccc1)NC(=O)[C@H](CCCCNC(=O)COCCOCCNC(=O)COCCOCCNC(=O)CC[C@H](NC(=O)CCCCCCCCCCCCCCCCC(=O)O)C(=O)O)NC(=O)CNC(=O)[C@H](CCC(=O)O)NC(=O)C(C)(C)NC(=O)[C@@H](N)Cc1c[nH]cn1)[C@@H](C)O)C(C)C)C(=O)N[C@@H](C)C(=O)N[C@@](C)(Cc1ccccc1)C(=O)N[C@H](C(=O)N[C@H](C(=O)N[C@@](C)(CCCCN)C(=O)NCC(=O)NCC(N)=O)C(C)C)C(C)C [compound 124] (H-H[Aib]EGK([AEEA-AEEA-γGlu-C18 diacid])[αMeF]TSDV[αMeS]S[αMeF]LEGEAA[αMeK]E[αMeF]IA[αMeF]VV[αMeK]GG-NH2; N-terminus assumed) | ≥ 25000 pM | ≥ 25100 pM | ≥ 25100 pM | ≥ 25 nM | ≥ 25.1 nM | ≥ 25 nM | ≥ 25.1 nM |
| CC[C@H](C)[C@H](NC(=O)[C@](C)(Cc1ccccc1)NC(=O)[C@H](CCC(=O)O)NC(=O)[C@](C)(CCCCN)NC(=O)[C@H](C)NC(=O)[C@H](C)NC(=O)[C@H](CCC(=O)O)NC(=O)CNC(=O)[C@H](CCC(=O)O)NC(=O)[C@H](CC(C)C)NC(=O)[C@](C)(Cc1ccccc1)NC(=O)[C@H](CO)NC(=O)[C@](C)(CO)NC(=O)[C@@H](NC(=O)[C@H](CC(=O)O)NC(=O)[C@H](CO)NC(=O)[C@@H](NC(=O)[C@](C)(Cc1ccccc1)NC(=O)[C@H](CO)NC(=O)[C@H](CCCCNC(=O)COCCOCCNC(=O)COCCOCCNC(=O)CC[C@H](NC(=O)CCCCCCCCCCCCCCCCC(=O)O)C(=O)O)NC(=O)[C@H](CCC(=O)O)NC(=O)C(C)(C)NC(=O)[C@@H](N)Cc1c[nH]cn1)[C@@H](C)O)C(C)C)C(=O)N[C@@H](C)C(=O)N[C@@](C)(Cc1ccccc1)C(=O)N[C@H](C(=O)N[C@H](C(=O)N[C@@](C)(CCCCN)C(=O)NCC(=O)NCC(N)=O)C(C)C)C(C)C [compound 125] (H-H[Aib]EK([AEEA-AEEA-γGlu-C18 diacid])S[αMeF]TSDV[αMeS]S[αMeF]LEGEAA[αMeK]E[αMeF]IA[αMeF]VV[αMeK]GG-NH2; N-terminus assumed) | ≥ 25000 pM | ≥ 24900 pM | – | ≥ 25 nM | ≥ 24.9 nM | ≥ 25 nM | ≥ 24.9 nM |
